Data reported in ChEMBL document CHEMBL2057207, “Fluorometric detection of adenine in target DNA by exciplex formation with fluorescent 8-arylethynylated deoxyguanosine” (Bioorg Med Chem Lett, 2012).
Active and inactive are the calls of the source. No cut-off for these calls is given here.

Legend:
Assay type in all cases: nucleic-acid assay
Nucleic Acid [1] = assay: Binding affinity to DNA 3'-GCG TTA T ATT GCG-5' assessed as change in fluorescence emission at 2.5 uM by UV-Vis spectrophotometric analysis at pH 7
Nucleic Acid [2] = assay: Binding affinity to DNA 3'-GCG TTA G ATT GCG-5' assessed as change in fluorescence emission at 2.5 uM by UV-Vis spectrophotometric analysis at pH 7
Nucleic Acid [3] = assay: Binding affinity to DNA 3'-GCG TTA C ATT GCG-5' assessed as change in fluorescence emission at 2.5 uM by UV-Vis spectrophotometric analysis at pH 7
Nucleic Acid [4] = assay: Binding affinity to DNA 3'-GCG TTA A ATT GCG-5' assessed as change in fluorescence emission at 2.5 uM by UV-Vis spectrophotometric analysis at pH 7
Nucleic Acid [5] = assay: Binding affinity to DNA 3'-GCG TTA C ATT GCG-5' assessed as melting temperature
Nucleic Acid [6] = assay: Binding affinity to DNA 3'-GCG TTA T ATT GCG-5' assessed as melting temperature
Nucleic Acid [7] = assay: Binding affinity to DNA 3'-GCG TTA A ATT GCG-5' assessed as melting temperature
Nucleic Acid [8] = assay: Binding affinity to DNA 3'-GCG TTA G ATT GCG-5' assessed as melting temperature
Nucleic Acid [9] = assay: Binding affinity to DNA 3'-GCG TTA G ATT GCG-5' assessed as change in fluorescence emission at 2.5 uM by UV transilluminator analysis
Nucleic Acid [10] = assay: Binding affinity to DNA 3'-GCG TTA A ATT GCG-5' assessed as change in fluorescence emission at 2.5 uM by UV transilluminator analysis
Nucleic Acid [11] = assay: Binding affinity to DNA 3'-GCG TTA T ATT GCG-5' assessed as change in fluorescence emission at 2.5 uM by UV transilluminator analysis
Nucleic Acid [12] = assay: Binding affinity to DNA 3'-GCG TTA C ATT GCG-5' assessed as change in fluorescence emission at 2.5 uM by UV transilluminator analysis

Cc1cn([C@H]2C[C@H](OP(=O)(O)OC[C@H]3O[C@@H](n4c(C#Cc5ccccc5)nc5c(=O)[nH]c(N)nc54)C[C@@H]3OP(=O)(O)OC[C@H]3O[C@@H](n4cc(C)c(=O)[nH]c4=O)C[C@@H]3OP(=O)(O)OC[C@H]3O[C@@H](n4cnc5c(N)ncnc54)C[C@@H]3OP(=O)(O)OC[C@H]3O[C@@H](n4cnc5c(N)ncnc54)C[C@@H]3OP(=O)(O)OC[C@H]3O[C@@H](n4ccc(N)nc4=O)C[C@@H]3OP(=O)(O)OC[C@H]3O[C@@H](n4cnc5c(=O)[nH]c(N)nc54)C[C@@H]3OP(=O)(O)OC[C@H]3O[C@@H](n4ccc(N)nc4=O)C[C@@H]3O)[C@@H](COP(=O)(O)O[C@H]3C[C@H](n4cnc5c(N)ncnc54)O[C@@H]3COP(=O)(O)O[C@H]3C[C@H](n4cnc5c(N)ncnc54)O[C@@H]3COP(=O)(O)O[C@H]3C[C@H](n4ccc(N)nc4=O)O[C@@H]3COP(=O)(O)O[C@H]3C[C@H](n4cnc5c(=O)[nH]c(N)nc54)O[C@@H]3COP(=O)(O)O[C@H]3C[C@H](n4ccc(N)nc4=O)O[C@@H]3CO)O2)c(=O)[nH]c1=O
Activity (Nucleic Acid [1]): inactive | Activity (Nucleic Acid [2]): inactive | Activity (Nucleic Acid [3]): inactive | Activity (Nucleic Acid [4]): inactive

COc1cc(OC)c(C#Cc2nc3c(=O)[nH]c(N)nc3n2[C@H]2C[C@H](OP(=O)(O)OC[C@H]3O[C@@H](n4cc(C)c(=O)[nH]c4=O)C[C@@H]3OP(=O)(O)OC[C@H]3O[C@@H](n4cnc5c(N)ncnc54)C[C@@H]3OP(=O)(O)OC[C@H]3O[C@@H](n4cnc5c(N)ncnc54)C[C@@H]3OP(=O)(O)OC[C@H]3O[C@@H](n4ccc(N)nc4=O)C[C@@H]3OP(=O)(O)OC[C@H]3O[C@@H](n4cnc5c(=O)[nH]c(N)nc54)C[C@@H]3OP(=O)(O)OC[C@H]3O[C@@H](n4ccc(N)nc4=O)C[C@@H]3O)[C@@H](COP(=O)(O)O[C@H]3C[C@H](n4cc(C)c(=O)[nH]c4=O)O[C@@H]3COP(=O)(O)O[C@H]3C[C@H](n4cnc5c(N)ncnc54)O[C@@H]3COP(=O)(O)O[C@H]3C[C@H](n4cnc5c(N)ncnc54)O[C@@H]3COP(=O)(O)O[C@H]3C[C@H](n4ccc(N)nc4=O)O[C@@H]3COP(=O)(O)O[C@H]3C[C@H](n4cnc5c(=O)[nH]c(N)nc54)O[C@@H]3COP(=O)(O)O[C@H]3C[C@H](n4ccc(N)nc4=O)O[C@@H]3CO)O2)c(OC)c1
Activity (Nucleic Acid [1]): inactive | Tm (Nucleic Acid [5]): 45.5 °C | Tm (Nucleic Acid [6]): 42.8 °C | Tm (Nucleic Acid [7]): 52.2 °C | Activity (Nucleic Acid [2]): inactive | Activity (Nucleic Acid [3]): inactive | Tm (Nucleic Acid [8]): 46.2 °C | Activity (Nucleic Acid [4]): Active

COc1ccc(C#Cc2nc3c(=O)[nH]c(N)nc3n2[C@H]2C[C@H](OP(=O)(O)OC[C@H]3O[C@@H](n4cc(C)c(=O)[nH]c4=O)C[C@@H]3OP(=O)(O)OC[C@H]3O[C@@H](n4cnc5c(N)ncnc54)C[C@@H]3OP(=O)(O)OC[C@H]3O[C@@H](n4cnc5c(N)ncnc54)C[C@@H]3OP(=O)(O)OC[C@H]3O[C@@H](n4ccc(N)nc4=O)C[C@@H]3OP(=O)(O)OC[C@H]3O[C@@H](n4cnc5c(=O)[nH]c(N)nc54)C[C@@H]3OP(=O)(O)OC[C@H]3O[C@@H](n4ccc(N)nc4=O)C[C@@H]3O)[C@@H](COP(=O)(O)O[C@H]3C[C@H](n4cc(C)c(=O)[nH]c4=O)O[C@@H]3COP(=O)(O)O[C@H]3C[C@H](n4cnc5c(N)ncnc54)O[C@@H]3COP(=O)(O)O[C@H]3C[C@H](n4cnc5c(N)ncnc54)O[C@@H]3COP(=O)(O)O[C@H]3C[C@H](n4ccc(N)nc4=O)O[C@@H]3COP(=O)(O)O[C@H]3C[C@H](n4cnc5c(=O)[nH]c(N)nc54)O[C@@H]3COP(=O)(O)O[C@H]3C[C@H](n4ccc(N)nc4=O)O[C@@H]3CO)O2)cc1
Activity (Nucleic Acid [9]): Active | Activity (Nucleic Acid [10]): Active | Activity (Nucleic Acid [11]): Active | Activity (Nucleic Acid [1]): inactive | Tm (Nucleic Acid [5]): 50.5 °C | Tm (Nucleic Acid [6]): 45.1 °C | Activity (Nucleic Acid [12]): Active | Tm (Nucleic Acid [7]): 49.7 °C | Activity (Nucleic Acid [2]): inactive | Activity (Nucleic Acid [3]): inactive | Tm (Nucleic Acid [8]): 49.8 °C | Activity (Nucleic Acid [4]): Active

COc1ccc(C#Cc2nc3c(=O)[nH]c(N)nc3n2[C@H]2C[C@H](OP(=O)(O)OC[C@H]3O[C@@H](n4cc(C)c(=O)[nH]c4=O)C[C@@H]3OP(=O)(O)OC[C@H]3O[C@@H](n4cnc5c(N)ncnc54)C[C@@H]3OP(=O)(O)OC[C@H]3O[C@@H](n4cnc5c(N)ncnc54)C[C@@H]3OP(=O)(O)OC[C@H]3O[C@@H](n4ccc(N)nc4=O)C[C@@H]3OP(=O)(O)OC[C@H]3O[C@@H](n4cnc5c(=O)[nH]c(N)nc54)C[C@@H]3OP(=O)(O)OC[C@H]3O[C@@H](n4ccc(N)nc4=O)C[C@@H]3O)[C@@H](COP(=O)(O)O[C@H]3C[C@H](n4cc(C)c(=O)[nH]c4=O)O[C@@H]3COP(=O)(O)O[C@H]3C[C@H](n4cnc5c(N)ncnc54)O[C@@H]3COP(=O)(O)O[C@H]3C[C@H](n4cnc5c(N)ncnc54)O[C@@H]3COP(=O)(O)O[C@H]3C[C@H](n4ccc(N)nc4=O)O[C@@H]3COP(=O)(O)O[C@H]3C[C@H](n4cnc5c(=O)[nH]c(N)nc54)O[C@@H]3COP(=O)(O)O[C@H]3C[C@H](n4ccc(N)nc4=O)O[C@@H]3CO)O2)c2ccccc12
Activity (Nucleic Acid [1]): inactive | Tm (Nucleic Acid [5]): 49.4 °C | Tm (Nucleic Acid [6]): 46.7 °C | Tm (Nucleic Acid [7]): 49.2 °C | Activity (Nucleic Acid [2]): inactive | Activity (Nucleic Acid [3]): inactive | Tm (Nucleic Acid [8]): 49.6 °C | Activity (Nucleic Acid [4]): Active
